Experimental data: PMC4723269 (Archives of biochemistry and biophysics, 2015)

Biological target: T1, Mtm1p (YGR257cp) (Saccharomyces cerevisiae, UniProt P53320)
T1 sequence (P53320 1-366): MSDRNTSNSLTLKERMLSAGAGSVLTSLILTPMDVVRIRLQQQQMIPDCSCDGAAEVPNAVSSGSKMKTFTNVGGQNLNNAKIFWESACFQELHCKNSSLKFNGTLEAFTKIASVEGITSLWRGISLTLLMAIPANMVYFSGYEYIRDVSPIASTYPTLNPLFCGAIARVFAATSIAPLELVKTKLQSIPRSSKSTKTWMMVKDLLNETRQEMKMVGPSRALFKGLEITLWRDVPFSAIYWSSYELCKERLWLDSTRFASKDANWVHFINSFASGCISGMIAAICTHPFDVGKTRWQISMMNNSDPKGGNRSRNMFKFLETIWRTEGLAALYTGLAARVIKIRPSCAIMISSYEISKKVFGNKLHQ
Experiment: stoichiometric tryptophan fluorescence quenching titration
Assay type: binding

Kd: 1900 ± 300 nM
SMILES: Cc1ncc(COP(=O)(O)O)c(C=O)c1O [PLP, pyridoxal 5′-phosphate]
